# Data reported in patent publication US20020035111A1, “Method of inhibiting neoplastic cells with tetracyclic pyrido[3,4-B] indole derivatives” (priority 1998, published 2002).
row,Structure (SMILES),melting point
1,"CC(C)N1CC(=O)N2[C@@H](c3ccc4c(c3)OCO4)c3[nH]c4ccccc4c3C[C@@H]2C1=O (relative stereo) [Example 16, Cis-2,3,6,7,12,12a-Hexahydro-2-Isopropyl-6-(3,4-Methylenedioxyphenyl) Pyrazino(2′,1′:6,1)Pyrido(3,4-b)Indole-1,4-Dione]",248 to 250 °C
2,"CN1CC(=O)N2[C@@H](c3ccc4c(c3)CCCC4)c3[nH]c4ccccc4c3C[C@@H]2C1=O (relative stereo) [Example 47, Cis-2,3,6,7,12,12a-Hexahydro-2-Methyl-6-(1,2,3,4-Tetrahydro-6-Naphthyl)Pyrazino(2′,1′:6,1)Pyrido(3,4-b)Indole-1,4-Dione]",260 °C
3,"CC(C)c1ccc([C@H]2c3[nH]c4ccccc4c3C[C@@H]3C(=O)N(C)CC(=O)N23)cc1 (relative stereo) [Example 74, Cis-2,3,6,7,12,12a-Hexahydro-6-(4-Isopropylphenyl)-2-Methylpyrazino(2′,1′:6,1)Pyrido(3,4-b)Indole-1,4-Dione]",244 °C
4,"CC(C)N1CC(=O)N2[C@@H](c3ccc4c(c3)CCCC4)c3[nH]c4ccccc4c3C[C@@H]2C1=O (relative stereo) [Example 48, Cis-2,3,6,7,12,12a-Hexahydro-2-Isopropyl-6-(1,2,3,4-Tetrahydro-6-Naphthyl)Pyrazino(2′,1′:6,1)Pyrido(3,4-b)Indole-1,4-Dione]",244 to 246 °C
5,"CCCCN1CC(=O)N2[C@@H](c3ccccc3Cl)c3[nH]c4ccccc4c3C[C@@H]2C1=O (relative stereo) [Example 40, Cis-2,3,6,7,12,12a-Hexahydro-2-Butyl-6-(2-Chlorophenyl) Pyrazino(2′,1′:6,1)Pyrido(3,4-b)Indole-1,4-Dione]",146 °C
6,"CCCCN1CC(=O)N2[C@H](c3ccc(OC)cc3)c3[nH]c4ccccc4c3C[C@@H]2C1=O [Example 85, (6R,12aR)-2,3,6,7,12,12a-Hexahydro-2-Butyl-6-(4-Methoxyphenyl)-Pyrazino(2′,1′:6,1)Pyrido(3,4-b)Indole-1,4-Dione]",183 to 184 °C
7,"COc1ccc([C@H]2c3[nH]c4ccc(F)cc4c3C[C@@H]3C(=O)N(CC(F)(F)F)CC(=O)N23)cc1 (relative stereo) [Example 5, Cis-2,3,6,7,12,12a-Hexahydro-10-Fluoro-6-(4-Methoxyphenyl)-2-(2,2,2-Trifluoroethyl)-Pyrazino(2′,1′:6,1)Pyrido(3,4-b)Indole-1,4-Dione]",190 °C
8,"Cc1ccc([C@H]2c3[nH]c4ccccc4c3C[C@@H]3C(=O)N(C)CC(=O)N23)o1 (relative stereo) [Example 60, Cis-2,3,6,7,12,12a-Hexahydro-2-Methyl-6-(5-Methyl-2-Furyl)-Pyrazino(2′,1′:6,1)Pyrido(3,4-b)Indole-1,4-Dione]",303 °C
9,"O=C1[C@H]2Cc3c([nH]c4ccccc34)[C@H](c3ccc4c(c3)CCO4)N2C(=O)CN1CC1CC1 (relative stereo) [Example 37, Cis-2,3,6,7,12,12a-Hexahydro-6-(2,3-Dihydrobenzo(b)Furan-5-yl)-2-Cyclopropylmethyl-Pyrazino(2′,1′:6,1)Pyrido(3,4-b)Indole-1,4-Dione]",165 to 166 °C
10,"CN1CC(=O)N2[C@@H](c3ccoc3)c3[nH]c4ccccc4c3C[C@@H]2C1=O (relative stereo) [Example 59, Cis-2,3,6,7,12,12a-Hexahydro-2-Methyl-6-(3-Furyl)-Pyrazino(2′,1′:6,1)Pyrido(3,4-b)Indole-1,4-Dione]",250 °C
11,"CN1CC(=O)N2[C@@H](c3ccc(Br)s3)c3[nH]c4ccccc4c3C[C@@H]2C1=O (relative stereo) [Example 52, Cis-2,3,6,7,12,12a-Hexahydro-6-(5-Bromo-2-Thienyl)-2-Methylpyrazino(2′,1′:6,1)Pyrido(3,4-b)Indole-1,4-Dione]",258 °C

# Continued, values first:
row,melting point,Structure (SMILES)
1,224 to 226 °C,"CN1CC(=O)N2[C@H](c3ccc(O)c(O)c3)c3[nH]c4ccccc4c3C[C@@H]2C1=O [Example 118, (6R, 12aR)-2,3,6,7,12,12a-Hexahydro-6-(3,4-Dihydroxyphenyl)-2-Methylpyrazino(2′,1′:6,1)Pyrido(3,4-b)Indole-1,4-Dione]"
2,265 to 266 °C,"COc1ccc(CCN2CC(=O)N3[C@H](c4ccc5c(c4)OCO5)c4[nH]c5ccccc5c4C[C@@H]3C2=O)cc1OC [Example 104, (6R,12aR)-2,3,6,7,12,12a-Hexahydro-2-(3,4-Dimethoxyphenethyl)-6-(3,4-Methylenedioxyphenyl)-Pyrazino(2′,1′:6,1)Pyrido(3,4-b)Indole-1,4-Dione]"
3,210 to 211 °C,"COc1ccc([C@@H]2c3[nH]c4ccccc4c3C[C@@H]3C(=O)N(C4CCCC4)CC(=O)N23)cc1 [Example 86, (6R,12aR)-2,3,6,7,12,12a-Hexahydro-2-Cyclopentyl-6-(4-Methoxyphenyl)-Pyrazino(2′,1′:6,1)Pyrido(3,4-b)Indole-1,4-Dione]"
4,291 to 293 °C,"CN1CC(=O)N2[C@H](c3ccc4occc4c3)c3[nH]c4ccccc4c3C[C@@H]2C1=O [Example 120, (6R, 12aR)-2,3,6,7, 12, 12a-Hexahydro-6-(5-Benzofuranyl)-2-Methyl-Pyrazino[2′,1′:6,1]Pyrido[3,4-b]Indole-1,4-Dione]"
5,176 °C,"O=C1[C@H]2Cc3c([nH]c4ccccc34)[C@@H](c3ccc4c(c3)CCC4)N2C(=O)CN1CC1CC1 [Example 94, (6R,12aR)-2,3,6,7,12,12a-Hexahydro-6-(5-Indanyl)-2-Cyclopropylmethylpyrazino(2′,1′:6,1)Pyrido(3,4-b)Indole-1,4-Dione]"
6,188 °C,"CCCCN1CC(=O)N2[C@@H](c3ccc(NS(C)(=O)=O)cc3)c3[nH]c4ccccc4c3C[C@@H]2C1=O (relative stereo) [Example 100, Cis-2,3,6,7,12,12a-Hexahydro-2-Butyl-6-(4-Methylsulfonamidophenyl)-Pyrazino(2′,1′:6,1)Pyrido(3,4-b)Indole-1,4-Dione]"
7,240 °C,"CN1CC(=O)N2[C@H](c3ccc4c(c3)CCN4)c3[nH]c4ccccc4c3C[C@@H]2C1=O [Example 111, (6R,12aR)-2,3,6,7,12,12a-Hexahydro-6-(5-Indolinyl)-2-Methyl-Pyrazino(2′,1′:6,1)Pyrido(3,4-b)Indole-1,4-Dione]"
8,219 °C,"O=C1[C@H]2Cc3c([nH]c4ccccc34)[C@@H](c3ccc4c(c3)OCO4)N2C(=O)CN1Cc1ccco1 [Example 105, (6R,12aR)-2,3,6,7,12,12a-Hexahydro-2-Furfuryl-6-(3,4-Methylenedioxyphenyl)-Pyrazino(2′,1′:6,1)Pyrido(3,4-b)Indole-1,4-Dione]"
